Assay results as given in patent publication US8697683B2, “Azetidinyl diamides as monoacylglycerol lipase inhibitors” (Janssen Pharmaceutica, NV, priority 2009, dated 2014).

Target: T1, MGL (Rattus norvegicus, UniProt Q8R431)
T1 construct: one g rat brain was homogenized
T1 sequence (Q8R431 1-303): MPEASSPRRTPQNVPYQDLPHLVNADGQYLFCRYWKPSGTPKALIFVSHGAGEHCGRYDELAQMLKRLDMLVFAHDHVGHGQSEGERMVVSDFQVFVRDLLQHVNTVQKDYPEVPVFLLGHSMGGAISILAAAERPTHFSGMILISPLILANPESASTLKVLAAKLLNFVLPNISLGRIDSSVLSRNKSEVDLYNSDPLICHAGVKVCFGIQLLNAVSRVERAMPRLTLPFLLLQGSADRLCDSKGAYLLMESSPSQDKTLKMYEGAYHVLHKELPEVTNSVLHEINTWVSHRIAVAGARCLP
Assay: 2-AG Accumulation Assay (rat brain homogenate)
Format: biochemical
Settings: percent of vehicle 2-AG accumulation; for Rat Brain 2AG % VehCntrl (%) @1 μM: compound 1 μM; for Rat Brain 2AG % VehCntrl (%) @10 μM: compound 10 μM

Rat Brain 2AG % VehCntrl (%) @1 μM [%]	Rat Brain 2AG % VehCntrl (%) @10 μM [%]	Compound
1207	–	O=C(c1ccc2c(c1)CCN(S(=O)(=O)c1ccc(C(F)(F)F)cc1)C2)N1CC(N2CCN(C(=O)c3nccs3)CC2)C1 [Cpd 928]
–	1192	O=C(c1ccc(-c2ccc(F)c(Cl)c2)cc1)N1CC(N2CCN(C(=O)c3nccs3)CC2)C1 [Cpd 178, 1-{1-[(3′-Chloro-4′-fluorobiphenyl-4-yl)carbonyl]azetidin-3-yl}-4-(1,3-thiazol-2-ylcarbonyl)piperazine]
1027	–	O=C(c1ccc2c(c1)CCN(Cc1cccc(C(F)(F)F)c1)C2)N1CC(N2CCN(C(=O)c3nccs3)CC2)C1 [Cpd 879]
1165	–	Cn1cc(-c2cccc(C(F)(F)F)c2)c2ccc(C(=O)N3CC(N4CCN(C(=O)c5cscn5)CC4)C3)cc21 [Cpd 1084]
–	1500	O=C(c1ccc(-c2ccc3ccccc3c2)cc1)N1CC(N2CCN(C(=O)c3nccs3)CC2)C1 [Cpd 182, 1-{1-[(4-Naphthalen-2-ylphenyl)carbonyl]azetidin-3-yl}-4-(1,3-thiazol-2-ylcarbonyl)piperazine]
1168	–	O=C(c1ccc(-c2nc(-c3cccc(C(F)(F)F)c3)cs2)cc1)N1CC(N2CCN(C(=O)c3nccs3)CC2)C1 [Cpd 1332]
1213	–	O=C(c1ccc(OCc2ccc(Cl)s2)cc1)N1CC(N2CCN(C(=O)c3nccs3)CC2)C1 [Cpd 962]
2570	–	O=C(c1ccc2c(ccn2-c2ccc(C(F)(F)F)cc2)c1)N1CC(N2CCN(C(=O)c3nccs3)CC2)C1 [Cpd 1357, 5-({3-[4-(1,3-Thiazol-2-ylcarbonyl)piperazin-1-yl]azetidin-1-yl}carbonyl)-1-[4-(trifluoromethyl)phenyl]-1H-indole]
–	1019	CN(CC1CCCCC1)c1ccc(CCC(=O)N2CC(N3CCN(C(=O)c4nccs4)CC3)C2)cc1 [Cpd 291, N-(Cyclohexylmethyl)-N-methyl-4-(3-oxo-3-{3-[4-(1,3-thiazol-2-ylcarbonyl)piperazin-1-yl]azetidin-1-yl}propyl)aniline]
1623	–	O=C(c1ccc2nc(-c3cccc(C(F)(F)F)c3)oc2c1)N1CC(N2CCN(C(=O)c3nccs3)CC2)C1 [Cpd 1158, 6-({3-[4-(1,3-Thiazol-2-ylcarbonyl)piperazin-1-yl]azetidin-1-yl}carbonyl)-2-[3-(trifluoromethyl)phenyl]-1,3-benzoxazole]
1097	1353	Cc1cc(-c2cccc(C(F)(F)F)c2)ccc1C(=O)N1CC(N2CCN(C(=O)c3nccs3)CC2)C1 [Cpd 239, 1-(1-{[3-Methyl-3′-(trifluoromethyl)biphenyl-4-yl]carbonyl}azetidin-3-yl)-4-(1,3-thiazol-2-ylcarbonyl)piperazine]
1116	–	O=C(c1ccc(Cc2ccc(C(F)(F)F)cc2)cc1)N1CC(N2CCN(C(=O)c3nccs3)CC2)C1 [Cpd 985]
–	1236	O=C(c1ccc(-c2ccc3c(c2)OCO3)cc1)N1CC(N2CCN(C(=O)c3nccs3)CC2)C1 [Cpd 181, 1-(1-{[4-(1,3-Benzodioxol-5-yl)phenyl]carbonyl}azetidin-3-yl)-4-(1,3-thiazol-2-ylcarbonyl)piperazine]
–	1180	O=C(c1ccc(-c2ccc(Cl)c(Cl)c2)cc1)N1CC(N2CCN(C(=O)c3nccs3)CC2)C1 [Cpd 175, 1-{1-[(3′,4′-Dichlorobiphenyl-4-yl)carbonyl]azetidin-3-yl}-4-(1,3-thiazol-2-ylcarbonyl)piperazine]
1013	–	O=C(c1ccc(CNc2cccc(Cl)c2)cc1)N1CC(N2CCN(C(=O)c3nccs3)CC2)C1 [Cpd 455]
1016	–	O=C(c1ccc2c(ccn2-c2ccc(C(F)(F)F)cc2)c1)N1CC(N2CCN(C(=O)c3cscn3)CC2)C1 [Cpd 1359, 5-({3-[4-(1,3-Thiazol-4-ylcarbonyl)piperazin-1-yl]azetidin-1-yl}carbonyl)-1-[4-(trifluoromethyl)phenyl]-1H-indole]
–	2005	O=C(c1cc2c(C(F)(F)F)cccc2s1)N1CC(N2CCN(C(=O)c3nccs3)CC2)C1 [Cpd 327, 1-(1,3-Thiazol-2-ylcarbonyl)-4-(1-{[4-(trifluoromethyl)-1-benzothiophen-2-yl]carbonyl}azetidin-3-yl)piperazine]
–	1271	O=C(c1ccc(SCc2cccc(Cl)c2)cc1)N1CC(N2CCN(C(=O)c3nccs3)CC2)C1 [Cpd 412, 1-[1-({4-[(3-Chlorobenzyl)sulfanyl]phenyl}carbonyl)azetidin-3-yl]-4-(1,3-thiazol-2-ylcarbonyl)piperazine]
–	1090	O=C(c1ccc(-c2cccc([N+](=O)[O-])c2)cc1)N1CC(N2CCN(C(=O)c3nccs3)CC2)C1 [Cpd 183, 1-{1-[(3′-Nitrobiphenyl-4-yl)carbonyl]azetidin-3-yl}-4-(1,3-thiazol-2-ylcarbonyl)piperazine]

Rat Brain 2AG % VehCntrl (%) @1 μM [%]	Rat Brain 2AG % VehCntrl (%) @10 μM [%]	Compound
1008	–	Cc1cn(-c2ccccc2)c2ccc(C(=O)N3CC(N4CCN(C(=O)c5nccs5)CC4)C3)cc12 [Cpd 1054]
1017	–	COc1c(C(=O)N2CC(N3CCN(C(=O)c4nccs4)CC3)C2)sc2cc(C(F)(F)F)ccc12 [Cpd 649, 1-(1-{[3-Methoxy-6-(trifluoromethyl)-1-benzothiophen-2-yl]carbonyl}azetidin-3-yl)-4-(1,3-thiazol-2-ylcarbonyl)piperazine]
–	1258	O=C(c1ccc(-c2ccc(F)cc2)cc1)N1CC(N2CCN(C(=O)c3nccs3)CC2)C1 [Cpd 174, 1-{1-[(4′-Fluorobiphenyl-4-yl)carbonyl]azetidin-3-yl}-4-(1,3-thiazol-2-ylcarbonyl)piperazine]
1035	–	O=C(c1ccc2nc(N3CCC(F)(F)CC3)sc2c1)N1CC(N2CCN(C(=O)c3nccs3)CC2)C1 [Cpd 671]
1080	–	O=C(c1ccc(Cc2cccc(C(F)(F)F)c2)cc1)N1CC(N2CCN(C(=O)c3nccs3)CC2)C1 [Cpd 995]
1276	–	O=C(c1ccc2c(-c3cccc(F)c3)c[nH]c2c1)N1CC(N2CCN(C(=O)c3nccs3)CC2)C1 [Cpd 1319]
–	1121	O=C(c1ccccc1)N1CCN(C2CN(C(=O)c3ccc(NCc4ccc(F)c(C(F)(F)F)c4)cc3)C2)CC1 [Cpd 494, N-[4-Fluoro-3-(trifluoromethyl)benzyl]-4-({3-[4-(phenylcarbonyl)piperazin-1-yl]azetidin-1-yl}carbonyl)aniline]
–	1406	O=C(c1ccccc1)N1CCN(C2CN(C(=O)c3ccc4nc(-c5cccc(C(F)(F)F)c5)oc4c3)C2)CC1 [Cpd 131, 6-({3-[4-(Phenylcarbonyl)piperazin-1-yl]azetidin-1-yl}carbonyl)-2-[3-(trifluoromethyl)phenyl]-1,3-benzoxazole]
1234	–	Cc1c(C(=O)N2CC(N3CCN(C(=O)c4nccs4)CC3)C2)sc2ccc(C(F)(F)F)cc12 [Cpd 897]
1371	–	O=C(c1nccs1)N1CCN(C2CN(C(=O)c3sc4cc(-c5ccccc5)ccc4c3Cl)C2)CC1 [Cpd 343, 1-{1-[(3-Chloro-6-phenyl-1-benzothiophen-2-yl)carbonyl]azetidin-3-yl}-4-(1,3-thiazol-2-ylcarbonyl)piperazine]
–	1629	O=C(c1ccc(SCc2ccc(Cl)cc2)cc1)N1CC(N2CCN(C(=O)c3nccs3)CC2)C1 [Cpd 415]
1373	–	O=C(c1ccc(OCc2ccc3ccccc3n2)cc1)N1CC(N2CCN(C(=O)c3nccs3)CC2)C1 [Cpd 967]
1183	–	O=C(c1ccc2c(ccn2-c2ccc(F)cc2)c1)N1CC(N2CCN(C(=O)c3cscn3)CC2)C1 [Cpd 1358, 1-(4-Fluorophenyl)-5-({3-[4-(1,3-thiazol-4-ylcarbonyl)piperazin-1-yl]azetidin-1-yl}carbonyl)-1H-indole]
1066	–	O=C(c1ccc(CSc2cccc(Cl)c2)cc1)N1CC(N2CCN(C(=O)c3nccs3)CC2)C1 [Cpd 454]
–	1172	CN(C)S(=O)(=O)Nc1cccc(-c2ccc(C(=O)N3CC(N4CCN(C(=O)c5ccccc5)CC4)C3)cc2)c1 [Cpd 205, N,N-Dimethyl-N′-[4′-({3-[4-(phenylcarbonyl)piperazin-1-yl]azetidin-1-yl}carbonyl)biphenyl-3-yl]sulfamide]
–	1261	N#CC=Cc1cccc(-c2ccc(C(=O)N3CC(N4CCN(C(=O)c5nccs5)CC4)C3)cc2)c1 [Cpd 223, 3-[4′-({3-[4-(1,3-Thiazol-2-ylcarbonyl)piperazin-1-yl]azetidin-1-yl}carbonyl)biphenyl-3-yl]prop-2-enenitrile]
–	1280	N#Cc1cccc(-c2ccc(C(=O)N3CC(N4CCN(C(=O)c5nccs5)CC4)C3)cc2)c1 [Cpd 161, 4′-({3-[4-(1,3-Thiazol-2-ylcarbonyl)piperazin-1-yl]azetidin-1-yl}carbonyl)biphenyl-3-carbonitrile]
1215	1265	O=C(c1nccs1)N1CCN(C2CN(C(=O)c3sc4cc(C(F)(F)F)ccc4c3Cl)C2)CC1 [Cpd 324, 1-(1-{[3-Chloro-6-(trifluoromethyl)-1-benzothiophen-2-yl]carbonyl}azetidin-3-yl)-4-(1,3-thiazol-2-ylcarbonyl)piperazine]

Compound	Rat Brain 2AG % VehCntrl (%) @1 μM [%]	Rat Brain 2AG % VehCntrl (%) @10 μM [%]
O=C(c1nn(-c2ccc(Cl)cc2Cl)c2c1CCC/C2=C\c1ccc(Cl)cc1)N1CC(N2CCN(C(=O)C(F)(F)F)CC2)C1 [Cpd 1020]	135	–
